# From patent publication US8124593B2, “Methods of treatment using sapacitabine” (Cyclacel Limited, priority 2007, dated 2012)
# Experiments:
# [1] = biological target: cytidine deaminase (Homo sapiens, UniProt P32320); settings: compared with ara-C; cited from earlier work
# [2] = system: CTCL; settings: cited from earlier work
# [3] = system: P388 leukemia; settings: mouse P388 leukemia model; cited from earlier work
# [4] = system: refractory solid tumours or lymphomas; assay: Open label dose escalation study of oral sapacitabine b.i.d. for 7 or 14 consecutive days every 21 days; assay type: in vivo
# Experimental: The study was conducted at the Institute for Drug Development, Cancer Therapy and Research Center (CTRC) in San Antonio, Tex. and Fox Chase Cancer Center in Philadelphia, Pa. The primary objective of the study was to evaluate the safety profile of sapacitabine administered twice daily for 14 consecutive days or 7 consecutive days every 21 days.
# The study was an open label dose escalation study of oral sapacitabine administered twice daily (b.i.d.) for 7 or 14 consecutive days every 21 days. One treatment cycle was 3 weeks. At least 3 patients were enrolled at each dose level. Dose escalation proceeded if ≦⅓ or ≦ 2/6 patients experienced dose limiting toxicity (DLT) during the first treatment cycle.
# [5] = system: poorly differentiated gastric adenocarcinoma; settings: human xenografts; cited from earlier work
# [6] = system: solid tumours or lymphomas; settings: 14 days every 21 days, body surface area basis; cited from earlier work
# [7] = system: advanced leukemias or myelodysplastic syndromes; assay: Phase I study, b.i.d. x 7 days orally every 21 days; assay type: in vivo
# Experimental: The Phase I study was conducted at M.D. Anderson Cancer Center (UTMDACC) in Houston, Tex. The primary objective was to define the MTD of a dosing schedule, b.i.d.×7 days orally every 21 days.
# Eligible patients had relapsed/refractory leukemias or MDS, or untreated disease if not willing to proceed with conventional systemic chemotherapy, adequate organ functions and performance status of 0-2. At least 3 patients were enrolled at each dose level. The MTD was the highest dose level at which ≦ 2/6 patients experienced a DLT during the first treatment cycle.
# [8] = system: variety of cancers; settings: phase I data; cited from earlier work
# [9] = system: colon cancer; settings: model of colon cancer; cited from earlier work
# [10] = single-dose in rodents, repeat dose up to 3 months in mice and dogs; cited from earlier work
# [11] = system: NSCLC; settings: 10 mg/m^2 intravenously over 30 minutes every three weeks; cited from earlier work
# [12] = 7-day schedule every 21 days, oral
# [13] = relapsed or refractory AML and MDS
# cytidine deaminase, sequence (P32320 whole entry, species assumed): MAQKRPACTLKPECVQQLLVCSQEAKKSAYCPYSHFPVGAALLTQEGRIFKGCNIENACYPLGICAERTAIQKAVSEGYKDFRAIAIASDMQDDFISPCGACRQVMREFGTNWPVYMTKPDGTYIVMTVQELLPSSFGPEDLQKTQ
compound,measurement,setting,value
"N#C[C@H]1[C@H](O)[C@@H](CO)O[C@H]1n1ccc(N)nc1=O [CNDAC, 2′-C-Cyano-2′-deoxy-β-D-arabino-pentafuranosylcytosine]",substrate of cytidine deaminase,[1],weak substrate
"Nc1ccn([C@@H]2O[C@H](CO)[C@@H](O)C2(F)F)c(=O)n1 [Gemcitabine, gemcitabine]",response rate,[2],60-70%
"CCCCCCCCCCCCCCCC(=O)Nc1ccn([C@@H]2O[C@H](CO)[C@@H](O)[C@@H]2C#N)c(=O)n1 [sapacitabine, 1-(2-C-cyano-2-deoxy-β-D-arabino-pentofuranosyl)-N^4-palmitoyl cytosine]","antitumour activity, comparison",[3],much more potent antitumour activity than 5′-DFUR and gemcitabine
same,MTD,[4]; [12],100 mg b.i.d.
same,RD (recommended dose),[4]; [12],75 mg b.i.d.
same,dose limiting toxicity,"[4]; 7 and 14 day schedules, 16 patients",reversible myelosuppression
same,best response by investigator assessment,"[4]; 7 day schedule, squamous cell carcinoma",stable disease in one patient
same,recommended dose,"[4]; 14 day schedule every 21 days, oral",50 mg b.i.d.
same,"non-hematological toxicities, severity",[4]; in vivo,mostly mild to moderate
same,"antitumour activity, comparison",[5],much more potent antitumour activity than 5′-DFUR and gemcitabine
same,recommended dose,[6],33 mg/m^2
same,MTD,[7]; [12],375 mg b.i.d.
same,recommended dose,[7]; [12],325 mg b.i.d.
same,"patients with reduction in bone marrow blast counts to <5%, AML",[7]; AML subgroup of responders,9 patients
same,"patients with reduction in bone marrow blast counts to <5%, MDS",[7]; MDS subgroup of responders,2 patients
same,patients with reduction in bone marrow blast counts to <5%,[7]; all evaluable patients,11 patients of 42 evaluable
same,"common non-hematologic adverse events, intensity","[7]; all grades, regardless of causality",mild to moderate in intensity
same,CRs with incomplete recovery of platelets,[7]; in vivo,2 patients
same,complete remissions (CRs),[7]; in vivo,2 patients
same,deaths from complications of neutropenic colitis,[7]; in vivo,One
same,predominant DLT,[7]; in vivo,gastrointestinal toxicity
same,DLT: abdominal pain/small bowel obstruction,[7]; number of patients,1 n
same,DLT: diarrhea,[7]; number of patients,3 n
same,DLT: neutropenic colitis,[7]; number of patients,2 n
same,antileukemic activity,[7]; [13],promising antileukemic activity
same,tolerability,[7]; [13],well tolerated
same,dose limiting toxicity,[8],myelosuppression
same,tolerability,[8],well tolerated
same,anticancer activity,[9],strong anticancer activity
same,"increasing survival and preventing spread of metastases to the liver, comparison",[9],superior to either gemcitabine or 5-FU
same,major toxicities,[10],"hematopoietic, gastrointestinal, and testicular"
Nc1ccn([C@@H]2CO[C@H](CO)O2)c(=O)n1 [troxacitabine],activity in NSCLC,[11],little activity
